Results: patent US6967205B1, “Compounds with antibacterial and antiparasitic properties” (New Pharma Research Sweden AB, priority 1999, dated 2005)
In brackets after ≈: the same amount, converted by molar mass.

Columns and labels:
[1] = tested on: E. mitis, E. hagani, E. praecox, E. acervulina, E. maxima, E. necatrix, E. tenella and E. brunetti; assay: Prophylactic anticoccidial effect, additional trials in chickens of Habbared X breed (8 Eimeria strains); format: in vivo; conditions: B700 100 ppm; for anticoccidial activity (in words): JA 3 200 ppm in feed from day 8, infected day 11; for increased body weight gain as compared to the Coxistac treated group / total number of oocysts during the treatment compared to Coxistac group: JA 3 200 ppm, Coxistac 100 ppm
Protocol: In yet another evaluation of the prophylactic anticoccidial effect of the present compounds, additional trials on chickens of Habbared X breed were performed. The same test protocol as the one previously employed for this breed of chickens was used, albeit with the following following modifications: • i) On day 8 after hatch, the chickens received feed containing B700 (100 ppm), JA 3 (200 ppm) or Coxistac (100 ppm); • ii) On day 11 after hatch, the chickens were infected orally by oocysts containing a mixture of 8 mature sporulated strains, namely E. mitis, E. hagani, E. praecox, E. acervulina, E. maxima, E. necatrix, E. tenella and E. brunetti. The results of this evaluation were slightly unexpected.

Bacillus cereus = assay: M.I.C. by broth dilution method (NCCLS 1988), gram-positive bacteria; format: cell-based; conditions: in vitro broth dilution
Outline: (§1)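 MIC values were obtained by broth dilution following NCCLS 1988 against gram-positive strains including Bacillus subtilus ATCC 6633, Streptococcus faecium and Staphylococcus ATCC 6538. Enrofloxacin served as reference. Compound stocks were 1 000 μg/ml in aqueous KOH or KOH/DMF.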

[2] = tested on: Bacillus subtilus (ATCC 6633); assay: as above; format: cell-based; conditions: ATCC6633, in vitro broth dilution
Outline: as §1

[3] = tested on: Micrococcus Luteus (ATCC 9341); assay: as above; format: cell-based; conditions: ATCC9341, in vitro broth dilution, read-out: M.I.C. values Microc. Luteus
Outline: as §1

[4] = tested on: Staph. aureus (ATCC 29737); assay: as above; format: cell-based; conditions: Staphylococcus aureus, ATCC29737, in vitro broth dilution
Outline: as §1

[5] = tested on: Staph. epidermidis (ATCC 12228); assay: as above; format: cell-based; conditions: Staphylococcus epidermidis, ATCC12228, in vitro broth dilution
Outline: as §1

[6] = tested on: Staphylococcus (ATCC 6538); assay: as above; format: cell-based; conditions: ATCC6538, in vitro broth dilution, read-out: M.I.C. values Staph. (ATCC 6538)
Outline: as §1

Streptococcus faecium = assay: as above; format: cell-based; conditions: Enterococcus faecium, in vitro broth dilution, read-out: M.I.C. values Streptoc. faecium
Outline: as §1

[7] = tested on: gram-negative bacteria (E. coli, KL. Pnemonia, Bordetella bronchiseptic, Salmonella typhi, Salmonella spp., Proteus spp., Pasterulla Duck, Pasterulla Camel); assay: M.I.C. by broth dilution method, gram-negative bacteria; format: cell-based; conditions: eleven gram-negative strains
Protocol: The antibacterial activity of the present compounds was investigated by in vitro evaluation of their M.I.C. (Minimum Inhibitory Concentration) values. The evaluation was conducted in complete accordance with the “Broth dilution method”, as outlined by the U.S. National Committee for Clinical Laboratory Standards “NCCLS 1988”.
Solutions of the present compounds were prepared by dissolving 0.01 g of a test compound in either 10% KOH (aq) or a 10% KOH/DMF mixture, after which sterile, distilled H2O was added up to a total volume of 10 ml, thereby yielding a test compound concentration of 1 000 μg/ml.
In the same manner as above, the M.I.C. values of the present compounds JA 3, JA 5, JA 12, JA 42, JA 73 and enrofloxacin as reference compound were investigated also on gram-negative bacteria. The gram-negative bacteria used were E. coli (ATCC 25922), E. Coli (ATCC 8739), E. Coli (ATCC 10536), E. Coli Pathogenic, KL. Pnemonia (ATCC 10031), Bordetella bronchiseptic (ATCC 4617), Salmonella typhi, Salmonella spp., Proteus spp., Pasterulla Duck and Pasterulla Camel.

M. gallisepticum = assay: M.I.C. against Mycoplasma in microtitre plates (Tanner and Wu); format: cell-based; conditions: Mycoplasmoides gallisepticum; in vitro, microtitre plates
Protocol: The M.I.C. values of the compounds JA 1, JA 3, JA 5, JA 12, JA 42 and JA 43 were determined in vitro against M. gallisepticum. Enrofloxacin, tylosin and oxytetracyclin were used as reference compounds. The tested compounds were all stored and applied as solutions in distilled water. The M.I.C. evaluation was performed in microtitre plates, and the methodology employed was basically that of Tanner and Wu (Avian Disease, 36:714-717 (1992)).

[8] = tested on: E. mitis, E. hagani, E. praecox, E. acervulina, E. maxima, E. necatrix, E. tenella and E. brunetti; assay: Prophylactic anticoccidial effect in chickens of Arbor Aker breed (8 Eimeria strains); format: in vivo; conditions: 100 ppm in feed from day 3, infected day 7
Protocol: JA 12, JA 39 and JA 42 was also evaluated in chickens of Arbor Aker breed. These trials were conducted by using basically the same test protocol as that used for the chickens of Habbared X breed, albeit with the following modifications:
• i) On day 3 after hatch, the tested groups of chickens received feed containing 100 ppm of JA 12, JA 39, JA 42 or Coxistac (60 ppm); • ii) On day 7 after hatch, the chickens were infected orally by oocysts containing a mixture of 8 mature sporulated strains, namely E. mitis, E. hagani, E. praecox, E. acervulina, E. maxima, E. necatrix, E. tenella and E. brunetti.

[9] = tested on: Eimeria acervulina, E. maxima, E. necatrix, E. tenella and E. brunetti; assay: Prophylactic anticoccidial activity in chickens of Habbared X breed (5 Eimeria strains); format: in vivo
Protocol: The anticoccidial activity of the present compounds as prophylactic agents was evaluated in vivo on […] one day old (1 day after hatch) chickens of Habbared X breed. The chickens were divided into four groups of 20 birds each, and each group was located in a separate pen (1 m×1 m). The chickens were then fed with unmedicated food up to day 7 after hatch. Fresh water was supplied ad libitum .
On day 8 after hatch, the four groups were fed as follows (1 ppm=1 mg drug/kg feed): • Group #1: feed containing JA 39 (100 ppm); • Group #2: feed containing JA 42 (100 ppm); • Group #3: feed containing Coxistac (60 ppm), a known anticoccidial agent (see U.S. Pat. No. 3,857,948);
Group #4: feed containing no drug (control group).
The chickens were fed as above on day 8 and 9 after hatch. On day 10 after hatch, each chicken was infected orally by 6 000-7 000 oocysts containing a mixture of 5 mature sporulated strains, namely Eimeria acervulina, E. maxima, E. necatrix, E. tenella and E. brunetti. The groups #1-3 received drug as above from day 10 to 21 after hatch.
From day 14 to 21 after hatch, fresh fecal droplets were collected and examined daily. The average number of oocysts/g faeces was then calculated in accordance with the so-called Mc-Master technique (Soulsby, E. J., Helminths, Arthropods & Protozoa of domesticated animals, p. 789, 6th Ed., Williams & Wilkins Co. Baltimore (USA), Tindall & Cassell Ltd., London, 1968). The final weight of and mean total amount of feed consumed by each bird were also examined, and the results are summarized in Table 8 hereinbelow.

Row | SMILES | MIC (Bacillus cereus) | MIC [2] | MIC [3] | MIC [4] | MIC [5] | MIC [6] | MIC (Streptococcus faecium) | antibacterial activity against gram-negative bacteria compared to that of enrofloxacin [7] | MIC (M. gallisepticum) | further results
1 | O=C(O)c1cn(C2CC2)c2cc(N3CCN(C(=O)Nc4ccc([N+](=O)[O-])cc4)CC3)c(F)cc2c1=O [B700, 1-cyclopropyl-6-fluoro-7-{4-[(4-nitroanilino)carbonyl]-1-piperazinyl}-4-oxo-1,4-dihydro-3-quinolinecarboxylic acid] | – | – | – | – | – | – | – | – | – | anticoccidial activity (in words) [1]: significant anticoccidial activity; increased body weight gain as compared to the Coxistac treated group [1]: approximately 10%; total number of oocysts during the treatment compared to Coxistac group [1]: higher than for the group treated with Coxistac
2 | O=C(O)c1cn(C2CC2)c2cc(N3CCN(S(=O)(=O)c4ccc([N+](=O)[O-])cc4)CC3)c(F)cc2c1=O [JA 3, 1-cyclopropyl-6-fluoro-7-{4-[(4-nitrophenyl)sulfonyl]-1-piperazinyl}-4-oxo-1,4-dihydro-3-quinolinecarboxylic acid] | 0.06 µg/mL (≈ 0.116 µM) | 0.06 µg/mL (≈ 0.116 µM) | 1 µg/mL (≈ 1.94 µM) | 0.06 µg/mL (≈ 0.116 µM) | 0.01 µg/mL (≈ 0.0194 µM) | 0.06 µg/mL (≈ 0.116 µM) | 0.25 µg/mL (≈ 0.484 µM) | roughly equal to that of enrofloxacin | 0.06 µg/mL (≈ 0.116 µM) | anticoccidial activity (in words) [1]: significant anticoccidial activity; increased body weight gain as compared to the Coxistac treated group [1]: approximately 10%; total number of oocysts during the treatment compared to Coxistac group [1]: higher than for the group treated with Coxistac
3 | O=C(O)c1cn(C2CC2)c2cc(N3CCN(S(=O)(=O)c4ccc5ccccc5c4)CC3)c(F)cc2c1=O [JA 5, 1-cyclopropyl-6-fluoro-7-[4-(2-naphthylsulfonyl)-1-piperazinyl]-4-oxo-1,4-dihydro-3-quinolinecarboxylic acid] | 0.03 µg/mL (≈ 0.0575 µM) | 0.008 µg/mL (≈ 0.0153 µM) | 0.5 µg/mL (≈ 0.959 µM) | 0.06 µg/mL (≈ 0.115 µM) | 0.01 µg/mL (≈ 0.0192 µM) | 0.06 µg/mL (≈ 0.115 µM) | 0.12 µg/mL (≈ 0.23 µM) | roughly equal to that of enrofloxacin | 0.12 µg/mL (≈ 0.23 µM) | –
4 | O=C(O)c1cn(C2CC2)c2cc(N3CCN(S(=O)(=O)C(F)(F)F)CC3)c(F)cc2c1=O [JA 12, 1-cyclopropyl-6-fluoro-4-oxo-7-{4-[(trifluoromethyl)sulfonyl]-1-piperazinyl}-1,4-dihydro-3-quinolinecarboxylic acid] | 0.06 µg/mL (≈ 0.129 µM) | 0.12 µg/mL (≈ 0.259 µM) | 0.5 µg/mL (≈ 1.08 µM) | 0.12 µg/mL (≈ 0.259 µM) | 0.12 µg/mL (≈ 0.259 µM) | 0.03 µg/mL (≈ 0.0647 µM) | 1 µg/mL (≈ 2.16 µM) | roughly equal to that of enrofloxacin | 0.12 µg/mL (≈ 0.259 µM) | prophylactic anticoccidial effect (in words) [8]: very similar to that of JA 39
5 | O=C(O)c1cn(C2CC2)c2cc(N3CCN(c4cccc(Cl)n4)CC3)c(F)cc2c1=O [JA 42, 7-[4-(6-chloro-2-pyridinyl)-1-piperazinyl]-1-cyclopropyl-6-fluoro-4-oxo-1,4-dihydro-3-quinolinecarboxylic acid] | 0.06 µg/mL (≈ 0.135 µM) | 0.01 µg/mL (≈ 0.0226 µM) | 1 µg/mL (≈ 2.26 µM) | 0.03 µg/mL (≈ 0.0677 µM) | 0.008 µg/mL (≈ 0.0181 µM) | 0.06 µg/mL (≈ 0.135 µM) | 0.25 µg/mL (≈ 0.564 µM) | roughly equal to that of enrofloxacin | 0.25 µg/mL (≈ 0.564 µM) | anticoccidial effect (in words) ([9]; chickens of Habbared X breed, 100 ppm in feed): excellent anticoccidial effect; Average number of Eimeria spp. oocysts/g faeces, day after hatch 14 ([9]; day 14 after hatch, drug in feed (JA 39, JA 42 100 ppm; Coxistac 60 ppm), infected day 10): 0.0 oocysts/g faeces; Average number of Eimeria spp. oocysts/g faeces, day after hatch 15 ([9]; day 15 after hatch, drug in feed (JA 39, JA 42 100 ppm; Coxistac 60 ppm), infected day 10): 4000 oocysts/g faeces; Average number of Eimeria spp. oocysts/g faeces, day after hatch 16 ([9]; day 16 after hatch, drug in feed (JA 39, JA 42 100 ppm; Coxistac 60 ppm), infected day 10): 6000 oocysts/g faeces; Average number of Eimeria spp. oocysts/g faeces, day after hatch 17 ([9]; day 17 after hatch, drug in feed (JA 39, JA 42 100 ppm; Coxistac 60 ppm), infected day 10): 3000 oocysts/g faeces; Average number of Eimeria spp. oocysts/g faeces, day after hatch 18 ([9]; day 18 after hatch, drug in feed (JA 39, JA 42 100 ppm; Coxistac 60 ppm), infected day 10): 0.0 oocysts/g faeces; Average number of Eimeria spp. oocysts/g faeces, day after hatch 19 ([9]; day 19 after hatch, drug in feed (JA 39, JA 42 100 ppm; Coxistac 60 ppm), infected day 10): 0.0 oocysts/g faeces; Average number of Eimeria spp. oocysts/g faeces, day after hatch 21 ([9]; day 21 after hatch, drug in feed (JA 39, JA 42 100 ppm; Coxistac 60 ppm), infected day 10): 0.0 oocysts/g faeces; Mean body weight ([9]; final weight, infected chickens, drug in feed (JA 39, JA 42 100 ppm; Coxistac 60 ppm)): 73.7 g; Mean amount of feed consumed ([9]; mean total feed per bird, infected chickens, drug in feed (JA 39, JA 42 100 ppm; Coxistac 60 ppm)): 91 g; Average number of Eimeria spp. oocysts/g faeces, Total ([9]; total of days 14-21 after hatch, drug in feed (JA 39, JA 42 100 ppm; Coxistac 60 ppm)): 13000 oocysts/g faeces; prophylactic anticoccidial effect (in words) [8]: essentially the same as those reported for the trials with the chickens of Habbared X breed
6 | O=C(O)c1cn(C2CC2)c2cc(N3CCN(S(=O)(=O)c4ccc(Cl)s4)CC3)c(F)cc2c1=O [JA 43, 7-{4-[(5-chloro-2-thienyl)sulfonyl]-1-piperazinyl}-1-cyclopropyl-6-fluoro-4-oxo-1,4-dihydro-3-quinolinecarboxylic acid] | 0.12 µg/mL (≈ 0.234 µM) | 0.25 µg/mL (≈ 0.488 µM) | 1 µg/mL (≈ 1.95 µM) | 0.12 µg/mL (≈ 0.234 µM) | 0.25 µg/mL (≈ 0.488 µM) | 0.03 µg/mL (≈ 0.0586 µM) | 1 µg/mL (≈ 1.95 µM) | – | 0.25 µg/mL (≈ 0.488 µM) | –
7 | O=C(O)c1cn(C2CC2)c2cc(NCC3CCCO3)c(F)cc2c1=O (centres unmarked) [JA 73, 1-cyclopropyl-6-fluoro-4-oxo-7-[(tetrahydro-2-furanylmethyl)amino]-1,4-dihydro-3-quinolinecarboxylic acid] | 0.06 µg/mL (≈ 0.173 µM) | 0.12 µg/mL (≈ 0.346 µM) | 2 µg/mL (≈ 5.77 µM) | 0.12 µg/mL (≈ 0.346 µM) | 0.12 µg/mL (≈ 0.346 µM) | 0.06 µg/mL (≈ 0.173 µM) | 0.5 µg/mL (≈ 1.44 µM) | roughly equal to that of enrofloxacin | – | –
